Key:
SW620 tumor = test: In vivo efficacy, SW620 mouse xenograft model
Experimental: Four-week old, female Swiss, nude mice (n=5 per group, Charles River, Lyon, France) were subcutaneously inoculated with 1×10^6 SW620 cells on the right flank. […] Drugs were administered intraperitoneously on a 3×/week basis for three consecutive weeks (e.g., D1/D2/D3, D8/D9/D10 and D16/D17/D18). Tumor size was measured three times a week in three dimensions using Vernier calipers, and tumor weight (mg) was calculated using the following standard formula: mass=pi/6XlengthXwidthXheight (Waterhouse et al, 2005). Preliminary experiments performed with empty liposomes were conducted to confirm the absence of any in vivo antiproliferative activity. Animal weight was monitored as a marker of toxicity. Animals were euthanized whenever a 25% loss of initial weight was observed, or when tumors reached 2500 mg.

colorectal cancer = conditions: monotherapy; cited from earlier work
[1] = system: SW620 human colon carcinoma cell line; test: Antiproliferative MTT assay, 24 h exposure plus 48 h drug-free; type: cell-based; conditions: SW-620, SW620, 24 h exposure + 48 h drug-free medium, n=3, read-out: IC50 (5-FU concentration inhibiting 50% of cell growth)
Experimental: (§1) All experiments were carried out in the 5-FU-resistant, human colon carcinoma cell line SW620 (a.k.a CCL227) which overexpresses TS. Cells were maintained in RPMI supplemented with 10% fetal calf serum, […] and 1% kanamycin in a humidified CO2 incubator at 37° C. All experiments were performed in exponentially growing cells.
Cells were seeded at a density of 8×10^4 cells/well in 96-well plates. […] Next, drug was removed and the cells were allowed to grow in fresh medium for an additional 48 h. After 72 h of discontinuous exposure, cell viability was evaluated using the classic colorimetric MTT assay (Alley et al, 1988). The IC50 was defined as the 5-FU concentration inhibiting 50% of cell growth.

[2] = system: 5-FU-resistant SW620 human colorectal cell line; test: MTT testing of triple liposomal formulation, 72 continuous exposure; type: cell-based; conditions: SW-620
Text: Cell sensitivity was estimated by calculating the respective IC50 of the different regimen (MTT testing, 72 continuous exposure).

SW620 cells = test: 5-FU tumoral metabolism study with tritiated 5-FU; type: cell-based, human; conditions: SW620, 1 μM tritiated 5-FU, 3-6 h observation period
Experimental: as §1
Exponentially growing cells were exposed to 1 μM of tritiated 5-FU alone, combined with free d-Ino or as a liposomal preparation [5-FU+d-Ino]-L. After 3, 4 and 6 h exposure, cells were harvested, lysed into 70% methanol and cytosols were isolated by centrifugation (15000 rpm, 30 min) and stored at −80° C. until analysis. Separation of 5-FU and its main metabolites was achieved using a HP1090 HPLC system (Agilent, France) coupled to a Flo-One radioactive detector (Packard, France) and equipped with an RP18 column (Agilent, France), followed by elution with a K2HPO4-TBAN:Methanol gradient as described previously (Ciccolini et al, 2000b).

In the case of `O=c1[nH]cc(F)c(=O)[nH]1` [5-FU, 5-fluorouracil], the “tumor size reduction at the conclusion of the study” value (SW620 tumor; 5-FU 50 mg/kg, d-Ino 120 mg/kg IP, 3x/week for three weeks) is reported as 28%, the “effect on tumor growth, in words” value (SW620 tumor; as compared with untreated animals) is reported as “failed to reduce tumor growth” and the survival time (SW620 tumor; controls 16 days) is reported as 20 days. The “increase in survival time compared to controls” value (SW620 tumor; mouse, in vivo) was 25%, the response rate (colorectal cancer) was 20% and the IC50 [1] was 77 ± 6 µM. For the same molecule, the IC50 [2] was 62 µM and the “anti-TS FdUMP synthesis” value (SW620 cells) was 83 dpm/mg protein.
